Source: patent US20210169903A1, “PHARMACEUTICAL COMPOSITIONS AND METHODS” (Tyme, Inc., priority 2019, published 2021)

Test system: established subcutaneous CT26 murine colon carcinoma
Experiment: Anti-tumor activity of components of the transdermal formulation, intratumoral, tumor volume (Example 3)
Type: in vivo, female Balb/c mice
Design: TES Group Median / DT Group Median / TGD: unit not given here
Settings: 50 μL intratumorally daily Day 11-17; for TGD: tumor growth delay versus Vehicle (0.0)
Description: A study is conducted to evaluate the anti-tumor activity of the components of the transdermal formulation intratumorally against established subcutaneous CT26 murine colon carcinoma in female Balb/c mice.
Vehicle control is saline solution. 3-surfactant mixture is a mixture of Nonaethylene glycol monododecyl ether, 1-Methyl-2-pyrrolidinone, and Linoleic Acid.
Tumor cells are implanted subcutaneously (Day 0). Once enrollment criteria are achieved, animals are distributed into treatment groups such that the mean tumor burden in each group is within 10% of the overall mean. Mice are dosed individually by body weight (50 μL fixed/injection intratumorally) on the day of treatment as described above. Animals are dose daily for 7 days beginning on Day 11 and ending on Day 17. Animals are held for tumor growth delay endpoint/tumor growth inhibition endpoint and complete regression/partial regression/tumor free survivor determination.

[1] = 2nd time-point column (day not given)
[2] = 4th time-point column (day not given)
[3] = 5th time-point column (day not given)
[4] = 6th time-point column (day not given)
[5] = 7th time-point column (day not given)

## CCCCC/C=C\C/C=C\CCCCCCCC(=O)O [Linoleic Acid]
[1]
  Mean Tumor Volume: 283 mm^3
  Median Tumor Volume: 270 mm^3
3rd time-point (day not given)
  Mean Tumor Volume: 481 mm^3
  Median Tumor Volume: 411 mm^3
[2]
  Mean Tumor Volume: 777 mm^3
  Median Tumor Volume: 700 mm^3
[3]
  Mean Tumor Volume: 1291 mm^3
  Median Tumor Volume: 1030 mm^3
[4]
  Mean Tumor Volume: 1118 mm^3
  Median Tumor Volume: 1152 mm^3
[5]
  Mean Tumor Volume: 2035 mm^3
  Median Tumor Volume: 2250 mm^3
  DT Group Median: 3.5
  TES Group Median: 18.7
  TGD: 0.6
Day not given
  Mean Tumor Volume: 132 mm^3
  Median Tumor Volume: 138 mm^3

## CN1CCCC1=O [1-Methyl-2-pyrrolidinone anhydrous, 1-Methyl-2-pyrrolidinone]
[1]
  Mean Tumor Volume: 278 mm^3
  Median Tumor Volume: 295 mm^3
3rd time-point (day not given)
  Mean Tumor Volume: 428 mm^3
  Median Tumor Volume: 426 mm^3
[2]
  Mean Tumor Volume: 688 mm^3
  Median Tumor Volume: 624 mm^3
[3]
  Mean Tumor Volume: 1008 mm^3
  Median Tumor Volume: 918 mm^3
[4]
  Mean Tumor Volume: 1216 mm^3
  Median Tumor Volume: 1183 mm^3
[5]
  Mean Tumor Volume: 1910 mm^3
  Median Tumor Volume: 1812 mm^3
  DT Group Median: 4.0
  TES Group Median: 18.8
  TGD: 0.8
Day not given
  Mean Tumor Volume: 134 mm^3
  Median Tumor Volume: 141 mm^3

## CCCCCCCCCCCCOCCOCCOCCOCCOCCOCCOCCOCCOCCO [Nonaethylene glycol monododecyl ether]
[1]
  Mean Tumor Volume: 236 mm^3
  Median Tumor Volume: 246 mm^3
3rd time-point (day not given)
  Mean Tumor Volume: 416 mm^3
  Median Tumor Volume: 368 mm^3
[2]
  Mean Tumor Volume: 761 mm^3
  Median Tumor Volume: 819 mm^3
[3]
  Mean Tumor Volume: 996 mm^3
  Median Tumor Volume: 988 mm^3
[4]
  Mean Tumor Volume: 1364 mm^3
  Median Tumor Volume: 1311 mm^3
[5]
  Mean Tumor Volume: 2017 mm^3
  Median Tumor Volume: 2009 mm^3
  DT Group Median: 3.7
  TES Group Median: 17.7
  TGD: −0.4
Day not given
  Mean Tumor Volume: 126 mm^3
  Median Tumor Volume: 125 mm^3
